Assay results reported in PubChem BioAssay (NCI).
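Method: 48-hour compound exposure of cells in 96-well plates, five concentrations, linear interpolation of endpoints. At the TGI there is no net growth.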

How the values were obtained:
Assay in all cases: NCI-60 cell line screen, 48 h
RPMI-8226 leukemia = system: RPMI-8226 leukemia
ACHN renal = system: ACHN renal
OVCAR-3 ovarian = system: OVCAR-3 ovarian
OVCAR-4 ovarian = system: OVCAR-4 ovarian
MDA-MB-435 = system: MDA-MB-435
NCI-H23 lung = system: NCI-H23 lung
PC-3 prostate = system: PC-3 prostate
SW-620 colon = system: SW-620 colon
COLO 205 colon = system: COLO 205 colon
NCI-H460 lung = system: NCI-H460 lung
CAKI-1 renal = system: CAKI-1 renal
SF-268 CNS = system: SF-268 CNS
HOP-92 NSCLC = system: HOP-92 NSCLC
NCI-H226 lung = system: NCI-H226 lung
MDA-N = system: MDA-N
SK-MEL-28 melanoma = system: SK-MEL-28 melanoma
A549 NSCLC = system: A549 NSCLC
OVCAR-8 ovarian = system: OVCAR-8 ovarian
U251 CNS = system: U251 CNS
HCT-116 colon = system: HCT-116 colon
MCF7 breast = system: MCF7 breast
MDA-MB-231 breast = system: MDA-MB-231 breast
A498 renal = system: A498 renal
SF-539 CNS = system: SF-539 CNS
T-47D breast = system: T-47D breast
KM12 colon = system: KM12 colon
HOP-62 NSCLC = system: HOP-62 NSCLC
MOLT-4 leukemia = system: MOLT-4 leukemia
M14 melanoma = system: M14 melanoma
SR leukemia = system: SR leukemia
SK-MEL-5 melanoma = system: SK-MEL-5 melanoma
HT29 colon = system: HT29 colon
HCC-2998 colon = system: HCC-2998 colon
CCRF-CEM leukemia = system: CCRF-CEM leukemia
TK-10 renal = system: TK-10 renal
K-562 leukemia = system: K-562 leukemia
UACC-257 melanoma = system: UACC-257 melanoma
DU-145 prostate = system: DU-145 prostate
SNB-75 CNS = system: SNB-75 CNS
SF-295 CNS = system: SF-295 CNS
UACC-62 melanoma = system: UACC-62 melanoma
LOX IMVI melanoma = system: LOX IMVI melanoma
786-0 renal = system: 786-0 renal
HS 578T breast = system: HS 578T breast
SK-OV-3 ovarian = system: SK-OV-3 ovarian
UO-31 renal = system: UO-31 renal
HL-60(TB) leukemia = system: HL-60(TB) leukemia
SK-MEL-2 melanoma = system: SK-MEL-2 melanoma
SNB-19 CNS = system: SNB-19 CNS
SN12C renal = system: SN12C renal
OVCAR-5 ovarian = system: OVCAR-5 ovarian
NCI/ADR-RES ovarian = system: NCI/ADR-RES ovarian
RXF 393 renal = system: RXF 393 renal
BT-549 breast = system: BT-549 breast
IGROV1 ovarian = system: IGROV1 ovarian
HCT-15 colon = system: HCT-15 colon
NCI-H522 lung = system: NCI-H522 lung
EKVX NSCLC = system: EKVX NSCLC

Work on NC(=O)C(=CNC(=S)Nc1cccc(C(F)(F)F)c1)C(N)=O yielded a TGI (RPMI-8226 leukemia) greater than 100 µM, a TGI (ACHN renal) greater than 100 µM and a TGI (OVCAR-3 ovarian) greater than 100 µM. The TGI (OVCAR-4 ovarian) was greater than 100 µM, the TGI (MDA-MB-435) was greater than 100 µM and the TGI (NCI-H23 lung) was greater than 100 µM. For the same molecule, the TGI (PC-3 prostate) was greater than 100 µM, the TGI (SW-620 colon) was greater than 100 µM and the TGI (COLO 205 colon) was greater than 100 µM. The TGI (NCI-H460 lung) was greater than 100 µM, the TGI (CAKI-1 renal) was greater than 100 µM and the TGI (SF-268 CNS) was greater than 100 µM. The TGI (HOP-92 NSCLC) was greater than 100 µM, the TGI (NCI-H226 lung) was greater than 100 µM and the TGI (MDA-N) was greater than 100 µM. It also gave a TGI (SK-MEL-28 melanoma) greater than 100 µM, a TGI (A549 NSCLC) greater than 100 µM and a TGI (OVCAR-8 ovarian) greater than 100 µM. It also gave a TGI (U251 CNS) greater than 100 µM, a TGI (HCT-116 colon) greater than 100 µM and a TGI (MCF7 breast) greater than 100 µM. For the same molecule, the TGI (MDA-MB-231 breast) was greater than 100 µM, the TGI (A498 renal) was greater than 100 µM and the TGI (SF-539 CNS) was greater than 100 µM. It also gave a TGI (T-47D breast) greater than 100 µM, a TGI (KM12 colon) greater than 100 µM and a TGI (HOP-62 NSCLC) greater than 100 µM. It also gave a TGI (MOLT-4 leukemia) greater than 100 µM, a TGI (M14 melanoma) greater than 100 µM and a TGI (SR leukemia) greater than 100 µM. For the same molecule, the TGI (SK-MEL-5 melanoma) was greater than 100 µM, the TGI (HT29 colon) was greater than 100 µM and the TGI (HCC-2998 colon) was greater than 100 µM. For the same molecule, the TGI (CCRF-CEM leukemia) was greater than 100 µM, the TGI (TK-10 renal) was greater than 100 µM and the TGI (K-562 leukemia) was greater than 100 µM. For the same molecule, the TGI (UACC-257 melanoma) was greater than 100 µM, the TGI (DU-145 prostate) was greater than 100 µM and the TGI (SNB-75 CNS) was greater than 100 µM. For the same molecule, the TGI (SF-295 CNS) was greater than 100 µM, the TGI (UACC-62 melanoma) was greater than 100 µM and the TGI (LOX IMVI melanoma) was greater than 100 µM. The TGI (786-0 renal) was greater than 100 µM, the TGI (HS 578T breast) was greater than 100 µM and the TGI (SK-OV-3 ovarian) was greater than 100 µM. The TGI (UO-31 renal) was greater than 100 µM, the TGI (HL-60(TB) leukemia) was greater than 100 µM and the TGI (SK-MEL-2 melanoma) was greater than 100 µM. It also gave a TGI (SNB-19 CNS) greater than 100 µM, a TGI (SN12C renal) greater than 100 µM and a TGI (OVCAR-5 ovarian) greater than 100 µM. It also gave a TGI (NCI/ADR-RES ovarian) greater than 100 µM and a TGI (RXF 393 renal) greater than 100 µM.

For O=c1c2ccccc2[nH]c2c(Cl)cc(Cl)c(N3CCCCC3)c12, the TGI (RPMI-8226 leukemia) was greater than 100 µM, the TGI (ACHN renal) was 65.7 µM and the TGI (OVCAR-3 ovarian) was greater than 100 µM. The TGI (OVCAR-4 ovarian) was greater than 100 µM, the TGI (MDA-MB-435) was 55.8 µM and the TGI (NCI-H23 lung) was 76.5 µM. For the same molecule, the TGI (PC-3 prostate) was greater than 100 µM, the TGI (SW-620 colon) was 84.8 µM and the TGI (COLO 205 colon) was greater than 100 µM. It also gave a TGI (CAKI-1 renal) of 97.1 µM, a TGI (NCI-H226 lung) of 62 µM and a TGI (MDA-N) of 63.1 µM. It also gave a TGI (SK-MEL-28 melanoma) greater than 100 µM, a TGI (A549 NSCLC) greater than 100 µM and a TGI (BT-549 breast) greater than 100 µM. For the same molecule, the TGI (OVCAR-8 ovarian) was greater than 100 µM, the TGI (U251 CNS) was 62.4 µM and the TGI (HCT-116 colon) was greater than 100 µM. For the same molecule, the TGI (MCF7 breast) was greater than 100 µM, the TGI (MDA-MB-231 breast) was greater than 100 µM and the TGI (A498 renal) was 81 µM. It also gave a TGI (SF-539 CNS) of 46.6 µM, a TGI (T-47D breast) greater than 100 µM and a TGI (KM12 colon) of 54.9 µM. For the same molecule, the TGI (HOP-62 NSCLC) was greater than 100 µM, the TGI (MOLT-4 leukemia) was greater than 100 µM and the TGI (M14 melanoma) was 88.9 µM. For the same molecule, the TGI (SR leukemia) was greater than 100 µM, the TGI (SK-MEL-5 melanoma) was greater than 100 µM and the TGI (IGROV1 ovarian) was 48.2 µM. The TGI (HT29 colon) was 32.6 µM, the TGI (HCT-15 colon) was greater than 100 µM and the TGI (HCC-2998 colon) was greater than 100 µM. The TGI (CCRF-CEM leukemia) was greater than 10 µM, the TGI (TK-10 renal) was greater than 100 µM and the TGI (K-562 leukemia) was greater than 10 µM. It also gave a TGI (UACC-257 melanoma) greater than 100 µM, a TGI (SNB-75 CNS) greater than 100 µM and a TGI (SF-295 CNS) greater than 100 µM. For the same molecule, the TGI (UACC-62 melanoma) was greater than 10 µM, the TGI (LOX IMVI melanoma) was greater than 100 µM and the TGI (786-0 renal) was greater than 10 µM. The TGI (NCI-H522 lung) was 64.3 µM, the TGI (SK-OV-3 ovarian) was greater than 100 µM and the TGI (UO-31 renal) was 55.5 µM. For the same molecule, the TGI (HL-60(TB) leukemia) was 74.7 µM, the TGI (EKVX NSCLC) was greater than 100 µM and the TGI (SK-MEL-2 melanoma) was 59.1 µM. The TGI (SNB-19 CNS) was 77.9 µM, the TGI (SN12C renal) was 55.8 µM and the TGI (OVCAR-5 ovarian) was greater than 100 µM. It also gave a TGI (NCI/ADR-RES ovarian) of 83.4 µM.
